# Assay results from PubChem BioAssay AID1329 (NMMLSC, 2008).
# Calls of active or inactive are those of the source. No rule for the calls is given here.
# Target: Induced myeloid leukemia cell differentiation protein Mcl-1 (Homo sapiens) (UniProt Q07820)
# Test: Mcl-1/Bim interaction regulators – biochemical, bead-based flow cytometry, multiplexed, human, dose response (AID 1329)
# Conditions: Bim peptide-Mcl-1 binding, MCF
# Chain of Induced myeloid leukemia cell differentiation protein Mcl-1 (Homo sapiens) (Q07820 whole entry, looked up): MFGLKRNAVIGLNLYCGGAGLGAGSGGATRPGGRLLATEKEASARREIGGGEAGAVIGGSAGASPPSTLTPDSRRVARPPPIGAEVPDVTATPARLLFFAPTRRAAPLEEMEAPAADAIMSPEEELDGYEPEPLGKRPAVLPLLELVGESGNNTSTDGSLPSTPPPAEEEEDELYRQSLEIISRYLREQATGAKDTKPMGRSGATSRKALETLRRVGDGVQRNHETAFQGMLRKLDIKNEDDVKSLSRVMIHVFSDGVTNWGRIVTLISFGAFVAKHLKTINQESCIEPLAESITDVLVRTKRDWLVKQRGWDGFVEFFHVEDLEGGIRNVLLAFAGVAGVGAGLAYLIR
row,percent span,SMILES
1,inactive,Fc1ccccc1/C=C1\CCCC2=C1NC(=S)NC2c1ccccc1F (centres undefined)
2,inactive,c1ccc(-c2nc(N3CCCCCC3)c3ccccc3n2)nc1
3,inactive,COc1cccc(/C=N/Nc2nn3cnnc3c3ccccc23)c1
4,inactive,O=C(Nc1ccc2nc(-c3ccco3)c(-c3ccco3)nc2c1)N1CCCCCC1
5,inactive,COc1cc(/C=N/NC(=O)c2ccc([N+](=O)[O-])cc2Cl)cc(Br)c1O
6,inactive,CCCCN(C(=O)CCC(=O)Nc1cc(C)on1)C(C(=O)NC(C)(C)C)c1cccc(OC)c1OC (centres undefined)
7,inactive,Cc1cc(-c2nnc(CCC(=O)NC(C)c3cccc4ccccc34)o2)no1 (centres undefined)
8,inactive,COC(=O)c1c(C(=O)OC)c2cccc3cc(-c4ccccc4)c4ccc1c4n32
9,inactive,CNC(=O)CC1C(=O)N(Cc2ccccc2)C(=S)N1NC(=O)c1cccc(F)c1 (centres undefined)
10,inactive,CNc1ccc(Br)cc(C(=O)/C=C/c2ccc(OC)cc2OC)c1=O
11,inactive,Cc1cccc(N2CCN(C(=S)Nc3ccc4nc(N5CCN(C)CC5)cc(C)c4c3)CC2)c1C
12,inactive,CCCCCCn1nc(C(=O)Nc2nc3c(s2)CCCC3)c2ccccc2c1=O
13,inactive,O=C(NNC(=O)C12CC3CC(CC(C3)C1)C2)c1ccco1
14,inactive,COc1ccccc1Oc1ccc2c(c1)C(=O)N(c1ccccc1)C2=O
